Measurements taken from PubChem BioAssay AID1259407 (Chemical Carcinogenesis Research Information System (CCRIS), 2018).
Active and inactive are the calls of the source. No rule for the calls is given here.

Tested on: CCRIS mutagenicity, Ames/micronucleus/aberration tests
Test: CCRIS mutagenicity studies
Conditions: Test System: AMES SALMONELLA TYPHIMURIUM
[1] = Strain/Indicator: TA98, Metabolic Activation: NONE, Method: STANDARD PLATE
[2] = Strain/Indicator: TA98, Metabolic Activation: RAT, LIVER, S-9, AROCLOR 1254, Method: STANDARD PLATE
[3] = Strain/Indicator: TA98, Metabolic Activation: NONE, Method: PREINCUBATION
[4] = Strain/Indicator: TA100, Metabolic Activation: NONE, Method: PREINCUBATION

For `Cc1ccc(N=Nc2c(O)ccc3ccccc23)c(S(=O)(=O)O)c1`, the mutagenic call [1] was “inactive; negative”, the mutagenic call (Strain/Indicator: TA98, Metabolic Activation: RAT, LIVER, S-9, Method: STANDARD PLATE) was “inactive; negative” and the mutagenic call (Strain/Indicator: TA100, Metabolic Activation: NONE, Method: STANDARD PLATE) was “inactive; negative”. For the same compound, the mutagenic call (Strain/Indicator: TA100, Metabolic Activation: RAT, LIVER, S-9, Method: STANDARD PLATE) was “inactive; negative”.

`O=[N+]([O-])c1ccc2[nH]c3c([N+](=O)[O-])cccc3c2c1` was tested, and the mutagenic call (Strain/Indicator: TA98(NR), Metabolic Activation: NONE, Method: STANDARD PLATE) was “active; positive”, the mutagenic call (Strain/Indicator: TA98(NR), Metabolic Activation: RAT, LIVER, S-9, AROCLOR 1254, Method: STANDARD PLATE) was “active; positive” and the mutagenic call [1] was “active; positive”. The mutagenic call [2] was “active; positive”.

`CNc1ccc2ncccc2c1N` was tested, and the mutagenic call [3] was “inactive; negative”, the mutagenic call (Strain/Indicator: TA98, Metabolic Activation: RAT, LIVER, S-9, AROCLOR 1254, Method: PREINCUBATION) was “inactive; negative” and the mutagenic call [4] was “inactive; negative”. For the same compound, the mutagenic call (Strain/Indicator: TA100, Metabolic Activation: RAT, LIVER, S-9, AROCLOR 1254, Method: PREINCUBATION) was “inactive; negative”.

For `CC1CNc2cc(O)c3ccc4ccccc4c3c21` (stereo unspecified), the mutagenic call [2] was “active; positive” and the mutagenic call (Strain/Indicator: TA98, Metabolic Activation: RAT, LIVER, S-9, AROCLOR, Method: STANDARD PLATE) was “active; positive”.

In the case of `C=CC(=O)OCC(Br)CBr` (stereo unspecified), the mutagenic call (Strain/Indicator: TA98, Metabolic Activation: HAMSTER, LIVER, S-9, AROCLOR 1254 (10%), Method: PREINCUBATION) is reported as “active; positive”, the mutagenic call [3] is reported as “inactive; negative” and the mutagenic call (Strain/Indicator: TA98, Metabolic Activation: RAT, LIVER, S-9, AROCLOR 1254 (10%), Method: PREINCUBATION) is reported as “inactive; negative”. The mutagenic call (Strain/Indicator: TA100, Metabolic Activation: HAMSTER, LIVER, S-9, AROCLOR 1254 (10%), Method: PREINCUBATION) was “active; positive”, the mutagenic call [4] was “inactive; negative” and the mutagenic call (Strain/Indicator: TA100, Metabolic Activation: RAT, LIVER, S-9, AROCLOR 1254 (10%), Method: PREINCUBATION) was “active; positive”. For the same compound, the mutagenic call (Strain/Indicator: TA1535, Metabolic Activation: HAMSTER, LIVER, S-9, AROCLOR 1254 (10%), Method: PREINCUBATION) was “active; positive”, the mutagenic call (Strain/Indicator: TA1535, Metabolic Activation: NONE, Method: PREINCUBATION) was “active; positive” and the mutagenic call (Strain/Indicator: TA1535, Metabolic Activation: RAT, LIVER, S-9, AROCLOR 1254 (10%), Method: PREINCUBATION) was “active; positive”. The mutagenic call (Strain/Indicator: TA1537, Metabolic Activation: HAMSTER, LIVER, S-9, AROCLOR 1254 (10%), Method: PREINCUBATION) was “inactive; negative”, the mutagenic call (Strain/Indicator: TA1537, Metabolic Activation: NONE, Method: PREINCUBATION) was “inactive; negative” and the mutagenic call (Strain/Indicator: TA1537, Metabolic Activation: RAT, LIVER, S-9, AROCLOR 1254 (10%), Method: PREINCUBATION) was “inactive; negative”.
